This is an account of results in the supplement of paper PMC10307832.

The first assay has as its system NCI-H2347. In words: relative viability (nuclei count vs DMSO), 5 days (fraction); higher = more cells survive. The settings on record: first compound 0.6325 µM. The gist of the method: (§1)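 Lung cancer cell lines were seeded in 1536-well plates and dosed by pin tool the next day, with either a single drug or a fixed anchor-drug dose combined with five library-drug doses (not always all listed) spaced in √10 steps. Five days later, one step fixed the cells and stained their nuclei (final 0.05% Triton X-100, 1% formaldehyde, 1 ug/ml Hoechst), and nuclei were counted on 4× images. Relative viability is the nuclei count in treated wells divided by the count in vehicle wells, and each value is the median of duplicate plates.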
The compound `COCC1(CO)C(=O)C2CCN1CC2` (stereo not given) [PRIMA-1MET] + Nc1ncn([C@H]2C[C@H](O)[C@@H](CO)O2)c(=O)n1 [Decitabine] (partner 2 µM) registered a relative viability of 0.549.
With `COCC1(CO)C(=O)C2CCN1CC2` (stereo not given) [PRIMA-1MET] + O=C(c1cc(Cc2n[nH]c(=O)c3ccccc23)ccc1F)N1CCN(C(=O)C2CC2)CC1 [Olaparib] (partner 8 µM), the relative viability worked out at 0.517.
Still for that read-out and setting: as for `COCC1(CO)C(=O)C2CCN1CC2` (stereo not given) [PRIMA-1MET] + C[C@@H](Oc1cc(-c2cnn(C3CCNCC3)c2)cnc1N)c1c(Cl)ccc(F)c1Cl [Crizotinib] (partner 1 µM), the figure is 0.667.

The assay is the same for the next values; noted with them: first compound 2 µM.
As to `COCC1(CO)C(=O)C2CCN1CC2` (stereo not given) [PRIMA-1MET] + CC(=O)Nc1cccc(-n2c(=O)n(C3CC3)c(=O)c3c(Nc4ccc(I)cc4F)n(C)c(=O)c(C)c32)c1 [Trametinib] (partner 0.02 µM), the relative viability came out at 0.255.
The same measure, in the same setting: as for `COCC1(CO)C(=O)C2CCN1CC2` (stereo not given) [PRIMA-1MET] + Nc1ncn([C@H]2C[C@H](O)[C@@H](CO)O2)c(=O)n1 [Decitabine] (partner 2 µM), the figure is 0.605.
Still for that read-out and setting: as for `COCC1(CO)C(=O)C2CCN1CC2` (stereo not given) [PRIMA-1MET] + O=C(c1cc(Cc2n[nH]c(=O)c3ccccc23)ccc1F)N1CCN(C(=O)C2CC2)CC1 [Olaparib] (partner 8 µM), the figure is 0.559.
The same measure, in the same setting: as for `COCC1(CO)C(=O)C2CCN1CC2` (stereo not given) [PRIMA-1MET] + C[C@@H](Oc1cc(-c2cnn(C3CCNCC3)c2)cnc1N)c1c(Cl)ccc(F)c1Cl [Crizotinib] (partner 1 µM), the figure is 0.295.

The assay is the same for the next values; noted with them: first compound 6.325 µM.
Regarding `COCC1(CO)C(=O)C2CCN1CC2` (stereo not given) [PRIMA-1MET] + CC(C)C[C@H](NC(=O)[C@H](Cc1ccccc1)NC(=O)c1cnccn1)B(O)O [Bortezomib] (partner 0.002 µM), the relative viability was 1.07.
Same read-out and setting: as for `COCC1(CO)C(=O)C2CCN1CC2` (stereo not given) [PRIMA-1MET] + CC(=O)Nc1cccc(-n2c(=O)n(C3CC3)c(=O)c3c(Nc4ccc(I)cc4F)n(C)c(=O)c(C)c32)c1 [Trametinib] (partner 0.02 µM), the figure is 0.225; as for `COCC1(CO)C(=O)C2CCN1CC2` (stereo not given) [PRIMA-1MET] + Nc1ncn([C@H]2C[C@H](O)[C@@H](CO)O2)c(=O)n1 [Decitabine] (partner 2 µM), 0.668; as for `COCC1(CO)C(=O)C2CCN1CC2` (stereo not given) [PRIMA-1MET] + O=C(c1cc(Cc2n[nH]c(=O)c3ccccc23)ccc1F)N1CCN(C(=O)C2CC2)CC1 [Olaparib] (partner 8 µM), 0.624.
On the same count and under the same terms, as for `COCC1(CO)C(=O)C2CCN1CC2` (stereo not given) [PRIMA-1MET] + C[C@@H](Oc1cc(-c2cnn(C3CCNCC3)c2)cnc1N)c1c(Cl)ccc(F)c1Cl [Crizotinib] (partner 1 µM), the figure is 0.771.

The same assay, now with this note: first compound 20 µM.
The compound `COCC1(CO)C(=O)C2CCN1CC2` (stereo not given) [PRIMA-1MET] + CC(C)C[C@H](NC(=O)[C@H](Cc1ccccc1)NC(=O)c1cnccn1)B(O)O [Bortezomib] (partner 0.002 µM) had a relative viability of 0.847.
On the same count and under the same terms, as for `COCC1(CO)C(=O)C2CCN1CC2` (stereo not given) [PRIMA-1MET] + CC(=O)Nc1cccc(-n2c(=O)n(C3CC3)c(=O)c3c(Nc4ccc(I)cc4F)n(C)c(=O)c(C)c32)c1 [Trametinib] (partner 0.02 µM), the figure is 0.24; as for `COCC1(CO)C(=O)C2CCN1CC2` (stereo not given) [PRIMA-1MET] + Nc1ncn([C@H]2C[C@H](O)[C@@H](CO)O2)c(=O)n1 [Decitabine] (partner 2 µM), 0.63.
Still for that read-out and setting: as for `COCC1(CO)C(=O)C2CCN1CC2` (stereo not given) [PRIMA-1MET] + O=C(c1cc(Cc2n[nH]c(=O)c3ccccc23)ccc1F)N1CCN(C(=O)C2CC2)CC1 [Olaparib] (partner 8 µM), the figure is 0.433; as for `COCC1(CO)C(=O)C2CCN1CC2` (stereo not given) [PRIMA-1MET] + C[C@@H](Oc1cc(-c2cnn(C3CCNCC3)c2)cnc1N)c1c(Cl)ccc(F)c1Cl [Crizotinib] (partner 1 µM), 0.682.

For the next assay, the system named is PC-14. The description is as above. The following applies: first compound 0.2 µM. The method, boiled down:
as §1
Compound `COCC1(CO)C(=O)C2CCN1CC2` (stereo not given) [PRIMA-1MET] + CC(C)C[C@H](NC(=O)[C@H](Cc1ccccc1)NC(=O)c1cnccn1)B(O)O [Bortezomib] (partner 0.002 µM) came in with a relative viability of 0.98.
In turn, `COCC1(CO)C(=O)C2CCN1CC2` (stereo not given) [PRIMA-1MET] + CC(=O)Nc1cccc(-n2c(=O)n(C3CC3)c(=O)c3c(Nc4ccc(I)cc4F)n(C)c(=O)c(C)c32)c1 [Trametinib] (partner 0.02 µM) came in with a relative viability of 0.921.
The compound `COCC1(CO)C(=O)C2CCN1CC2` (stereo not given) [PRIMA-1MET] + Nc1ncn([C@H]2C[C@H](O)[C@@H](CO)O2)c(=O)n1 [Decitabine] (partner 2 µM) registered a relative viability of 0.18.
In turn, `COCC1(CO)C(=O)C2CCN1CC2` (stereo not given) [PRIMA-1MET] + O=C(c1cc(Cc2n[nH]c(=O)c3ccccc23)ccc1F)N1CCN(C(=O)C2CC2)CC1 [Olaparib] (partner 8 µM) returned a relative viability of 0.261.
With `COCC1(CO)C(=O)C2CCN1CC2` (stereo not given) [PRIMA-1MET] + C[C@@H](Oc1cc(-c2cnn(C3CCNCC3)c2)cnc1N)c1c(Cl)ccc(F)c1Cl [Crizotinib] (partner 1 µM), the relative viability turned out to be 1.06.

The same assay, now with this note: first compound 0.6325 µM.
`COCC1(CO)C(=O)C2CCN1CC2` (stereo not given) [PRIMA-1MET] + CC(C)C[C@H](NC(=O)[C@H](Cc1ccccc1)NC(=O)c1cnccn1)B(O)O [Bortezomib] (partner 0.002 µM) had a relative viability of 0.722.
On the same count and under the same terms, as for `COCC1(CO)C(=O)C2CCN1CC2` (stereo not given) [PRIMA-1MET] + CC(=O)Nc1cccc(-n2c(=O)n(C3CC3)c(=O)c3c(Nc4ccc(I)cc4F)n(C)c(=O)c(C)c32)c1 [Trametinib] (partner 0.02 µM), the figure is 0.618; as for `COCC1(CO)C(=O)C2CCN1CC2` (stereo not given) [PRIMA-1MET] + Nc1ncn([C@H]2C[C@H](O)[C@@H](CO)O2)c(=O)n1 [Decitabine] (partner 2 µM), 0.109.
The same measure, in the same setting: as for `COCC1(CO)C(=O)C2CCN1CC2` (stereo not given) [PRIMA-1MET] + O=C(c1cc(Cc2n[nH]c(=O)c3ccccc23)ccc1F)N1CCN(C(=O)C2CC2)CC1 [Olaparib] (partner 8 µM), the figure is 0.208; as for `COCC1(CO)C(=O)C2CCN1CC2` (stereo not given) [PRIMA-1MET] + C[C@@H](Oc1cc(-c2cnn(C3CCNCC3)c2)cnc1N)c1c(Cl)ccc(F)c1Cl [Crizotinib] (partner 1 µM), 0.852.

Staying with this assay, now noted: first compound 2 µM.
Turning to `COCC1(CO)C(=O)C2CCN1CC2` (stereo not given) [PRIMA-1MET] + CC(C)C[C@H](NC(=O)[C@H](Cc1ccccc1)NC(=O)c1cnccn1)B(O)O [Bortezomib] (partner 0.002 µM), the relative viability was 0.856.
The compound `COCC1(CO)C(=O)C2CCN1CC2` (stereo not given) [PRIMA-1MET] + CC(=O)Nc1cccc(-n2c(=O)n(C3CC3)c(=O)c3c(Nc4ccc(I)cc4F)n(C)c(=O)c(C)c32)c1 [Trametinib] (partner 0.02 µM) displayed a relative viability of 0.97.
`COCC1(CO)C(=O)C2CCN1CC2` (stereo not given) [PRIMA-1MET] + Nc1ncn([C@H]2C[C@H](O)[C@@H](CO)O2)c(=O)n1 [Decitabine] (partner 2 µM): the relative viability was determined as 0.211.
